Data taken from US20170204187A1, “METHODS OF TREATING AND PREVENTING CANCER DRUG RESISTANCE” (Genentech, Inc., priority 2014, published 2017).
“Also recorded” adds a separate entry of the source.

Columns and labels:
LOX-IMVI VemR cell line = assay: LOX-IMVI VemR resensitization to vemurafenib by FGFR antagonists (FIG. 2B); assay type: cell-based; details: FGFR antagonist 1 μM in combination with 5 μM vemurafenib
Method: FIG. 2A-E.|A cell line (“LOX-IMVI VemR”) was engineered to be resistant to vemurafienib. A, An image of an immunoblot of 11 cell lines probed for FGFR1 expression. B, The LOX-IMVI VemR cell line is not affected by 5 μM vemurafenib (i.e., “PLX”) as shown in the DMSO plot; however, the cell line is affected by 5 μM vemurafenib in combination with an antagonist of FGFR signalling (i.e., BGJ398, PD173074, and AP24534).
The Lox-IMVI VemR cell line was used as the model of acquired resistance in B-raf mutant melanoma. 11 cell lines were tested for FGFR1 expression using a Western blot. Of the cell lines tested, FGFR1 expression was detected in the LOX-IMVI (vemurafenib sensitive) and LOX-IMVI VemR (vemurafenib resistant) lines (FIG. 2A).

HCC1569 cells = assay: Innate resistance model, sensitization to lapatinib (FIG. 20A); assay type: cell-based; details: 100 nM BGJ398 with 5 μM lapatinib
Method: (§1) FIG. 20 A-C.|HER2+ breast cancer models of innate resistance. A, FGFR inhibitor (BGJ398) sensitizes HCC1569 cells to lapatinib. B, FGFR inhibitor (BGJ398) sensitizes MDA-MB-453 cells to lapatinib.
(§2) The innate resistant HER2+ breast cancer cell lines were HCC1569 and MDA-MB-453. HC1569 expressed FGFR2 (detected by Western blot) and secreted FGF2 (detected by ELISA). FGFR ECD chimeras from the HCC1569 line were sensitized to lapatinib. Furthermore, HC1569 cells that were treated with FGFR inhibitor(s) sensitized the cells to lapatinib. […] MDA-MB-453 cells that were treated with FGFR inhibitor(s) sensitized the cells to lapatinib.
(§3) HCC1569 and MDA-MB-453 cells were treated with 100 nM afatinib, 100 nM crizotinib, or 100 nM BGJ398 in the presence or absence of 5 μM lapatinib (FIGS. 20A and 20B).

[1] = tested on: HER2+ breast cancer cell lines (AU565, BT-474, HCC1954, SK-BR-3, and UACC-893); assay: Block of FGF2 rescue in lapatinib/FGF2 treated cells (FIG. 19A); assay type: cell-based; details: cells treated with lapatinib and FGF2, then FGFR pan inhibitor
Method: FIG. 19 A-D.|FGFR4 mediates FGF2 rescue in HER2+ breast cancer. A, Percent rescue of cells treated with lapatinib and FGF2. B, Immunoblot of cells treated with lapatinib and FGF2. C, TCGA breast cancer samples (n=913) show high […] levels in breast cancer. D, HER2+ breast cancer cells are enriched for high FGFR4.
HER2+ breast cancer cell lines (AU565, BT-474, HCC1954, SK-BR-3, and UACC-893) were treated with lapatinib and FGF2. Thereafter, the cells were either exposed to siRNA targeting FGFR1, FGFR2, FGFR3, or FGFR4 or exposed to the FGFR pan inhibitor BGJ398 (FIG. 19A). […] Immunoblots were also performed to detect IP/pTyr/IB:FGFR4, FGFR4, pERK, ERK, and actin (control) in cells treated with lapatinib in the presence and absence of FGF2 (FIG. 19B).

[2] = tested on: HER2+ breast cancer models of innate resistance; assay: Tumor volume, lapatinib + FGFR inhibitor (FIG. 20C); assay type: in vivo; details: combination treatment of lapatinib and BGJ398
LOX-IMVI VemR cells = assay: In vitro combination study vemurafenib + BGJ398, Vem-resistant cell outgrowth (FIG. 3A); assay type: cell-based
LOX-IMVI tumors = assay: In vivo tumor volume, parental vemurafenib sensitive tumors
Method: (§4) FIG. 4A-C.|The LOX-IMVI VemR cell line has FGFR-mediated vemurafenib resistance in vivo. A, LOX-IMVI cells (parental cell line) are sensitive to vemurafenib.
(§5) The vemurafenib resistance and recovery of the LOX-IMVI VemR cell line was also studied in vivo. The tumor volume (mm^3) was measured in LOX-IMVI (parental, vemurafenib sensitive) tumors and in LOX-IMVI VemR (vemurafenib resistant) tumors in the presence of vemurafenib, BGJ398, or vemurafenib and BGJ398 ([…]).

MDA-MB-453 cells = assay: Innate resistance model, sensitization to lapatinib (FIG. 20B); assay type: cell-based; details: 100 nM BGJ398 with 5 μM lapatinib
Method: as §1, §2, §3

SK-MEL-24 cell line = assay: In vitro combination study vemurafenib + BGJ398 (FIG. 3A); assay type: cell-based; details: PLX4032 combined with FGFR antagonist
From the text: (§6) FIG. 3A-B.|FGFR-inhibition prevents Vem-resistant cell outgrowth. […] B, Expression patterns of select proteins are shown on West Blots in the presence of vemurafenib (PLX4032), an antagonist of FGFR signalling (NV-BGJ398), and/or FGF2.

SK-MEL-3 cell line = assay: as above; assay type: cell-based; details: PLX4032 combined with FGFR antagonist
From the text: as §6

LOX-IMVI VemR tumors = assay: In vivo tumor volume, vemurafenib resistant tumors; details: combination treatment of vemurafenib and BGJ398
Method: as §4, §5

LOX-IMVI cells = assay: Secreted factor rescue screen on LOX-IMVI (FIG. 23); assay type: cell-based
From the text: FIG. 23 A-C.|Vemurafenib resistant and sensitive cell lines can be used to determine and anticipate paths to resistance in patients. LOX-IMVI cells were rescued by FGF1, FGF2, EGF, and HGF in the screen. A, LOX-IMVI VemR cells were re-sensitized to PLX4032 by FGFR inhibition. B, Dual resistant LOX-IMVI VemR/FGFRi (i.e., resistant to vemurafenib and FGFR inhibitor) cells were re-sensitized to PLX4032 by EGFR inhibition. C, Triple resistant LOX-IMVI VemR/FGFRi/Erlotinib cells were re-sensitized to PLX4032 by MET inhibition.

[3] = tested on: B-raf mutant melanoma cell lines; assay: Secreted factor / FGF rescue screen, melanoma lines (FIG. 1, FIG. 15B); assay type: cell-based; details: for rescue of tumor cells from B-raf and MEK antagonists: melanoma cell line, FIG. 1B
Method: (§7) FIG. 1A-D.|Factors secreted by tumor cells and/or the tumor microenvironment contribute to drug resistance through activation of cell-surface receptors. […] D, Secreted growth factors which promote resistance to PLX4032 reactivate MAPK and PI3K pathways. Activation of MAPK by FGF2, MAPK and AKT by HGF and AKT by NRG1 and SCF are shown in 624 MEL cells in the presence of PLX4032. Treatments were 5 μM PLX4032 for 24 hours and 50 ng·mL FGF2, HGF, NRGB1, or SCF for 10 minutes.
(§8) FIG. 15 A-C.|Screen of 10 melanoma cell lines and 10 breast cancer lines was performed to determine the role of FGF signalling in drug resistance. […] C, Summary of FGF receptors, their subfamily, and their ligands.
(§9) FGF signalling and resistance was studied in 10 HER2+ breast cancer cell lines and in 10 B-raf mutant melanoma cell lines (FIG. 15). 7 of the 10 HER2+ breast cancer cell lines were rescued by FGF2 (FIG. 15A). 8 of the 10 B-raf mutant melanoma cell lines were rescued by FGF2 (FIG. 15B). Subsequent analysis determined that 50-70% of the melanoma lines with the V600E mutation were rescued by FGF2 (n=30).

624 MEL cells = assay: Immunoblot of MAPK and PI3K pathway reactivation by secreted growth factors (FIG. 1D); assay type: cell-based; details: 5 μM PLX4032 for 24 hours; 50 ng·mL factor for 10 minutes
Method: as §7

[4] = tested on: HER2+ breast cancer cells; assay: Immunoblot of downstream signalling after FGF2 exposure (FIG. 16); assay type: cell-based; details: FGF2 50 ng/mL for 10 minutes or 24 hours, with or without lapatinib 2 μM
Method: FIG. 16 A-B.|FGF2 reactivates key signalling pathways to promote resistance and stimulates sustained activation of downstream signaling. A, An immunoblot of cells exposed to FGF2 for 10 min compared to cells absent exposure. B, An immunoblot of cells exposed to FGF2 for 24 hrs compared to cells absent FGF2 exposure.
Furthermore, it was determined that FGF2 reactivates key signalling pathways to promote resistance (FIG. 16). This was shown in a cell assay wherein HER2+ breast cancer cells were exposed to FGF2 (50 ng·mL) for 10 minutes in the presence or absence of lapatinib (2 μM) (FIG. 16A). Similarly, an assay was performed wherein HER2+ breast cancer cells were exposed to FGF2 (50 ng/mL) for 24 hours in the presence or absence of lapatinib (2 μM) (FIG. 16B).

B-raf-mutant melanomas = assay: Immunoblot of MAPK reactivation in FGF2-mediated rescue (FIG. 7A); assay type: cell-based
From the text: FIG. 7 A-D.|Reactivation of MEK/ERK downstream of B-raf is a core mechanism of resistance in B-raf-mutant melanomas. A, MAPK signalling is required for FGF2-mediated resistance as shown by immunoblots. […] C, A synthetic lethal chemical screen was utilized to identify signalling pathways mediating resistance to PLX4032 in 12 acquired-resistance melanoma cell lines. […] D, Examples of the synthetic lethal chemical screen shown in FIG. 7C on specific cell lines.

[5] = tested on: HER2+ breast cancer cell lines; assay: FGF rescue screen, breast cancer lines (FIG. 15A); assay type: cell-based; details: 10 HER2+ breast cancer cell lines
Method: as §8, §9

## Cc1ccc(C(=O)Nc2ccc(CN3CCN(C)CC3)c(C(F)(F)F)c2)cc1C#Cc1cnc2cccnn12 [AP24534]
LOX-IMVI VemR cell line
  effect on the cell line / resensitization to vemurafenib: resensitized to vemurafenib; also recorded: affected

## CCN1CCN(c2ccc(Nc3cc(N(C)C(=O)Nc4c(Cl)c(OC)cc(OC)c4Cl)ncn3)cc2)CC1 [BGJ398, 3-(2,6-Dichloro-3,5-dimethoxy-phenyl)-1-{6-[4-(4-ethyl-piperazin-1-yl)-phenylamino]-pyrimidin-4-yl}-1-methyl-urea]
LOX-IMVI VemR cell line
  effect on the cell line / resensitization to vemurafenib: resensitized to vemurafenib; also recorded: affected
HCC1569 cells
  sensitization to lapatinib: rescue the cell lines from drug resistance; also recorded: sensitizes
[1]
  percent rescue from acquired resistance to lapatinib and FGF2: greatest percent rescue
[2]
  tumor volume: decrease tumor volume; also recorded: Tumor volume decreases
LOX-IMVI VemR cells; combination treatment of vemurafenib and BGJ398
  response to treatment: high response
LOX-IMVI VemR cells; single agent alone
  response to treatment: minimal response
LOX-IMVI tumors; co-treatment with BGJ398 and vemurafenib
  re-emergence of tumors following the end of treatment: can be prevented
LOX-IMVI tumors; vemurafenib 25 mg/kg, BID and BGJ398 15 mg/kg, QD
  tumor volume: tumor volume decreased
MDA-MB-453 cells
  sensitization to lapatinib: rescue the cell lines from drug resistance; also recorded: sensitizes
SK-MEL-24 cell line
  response to PLX4032: augmented response
SK-MEL-3 cell line
  response to PLX4032: augmented response
LOX-IMVI VemR tumors
  tumor volume / efficacy: did show a decrease in tumor volume
LOX-IMVI VemR tumors; listed as NVP-BGJ398
  tumor volume / efficacy: potent efficacy

## CCN(CC)CCCCNc1ncc2cc(-c3cc(OC)cc(OC)c3)c(NC(=O)NC(C)(C)C)nc2n1 [PD173074, N-[2-[[4-(diethylamino)butyl]amino]-6-(3,5-dimethoxyphenyl)pyrido[2,3-d]pyrimidin-7-yl]-N′-(1,1-dimethylethyl)-urea]
LOX-IMVI VemR cell line
  effect on the cell line / resensitization to vemurafenib: resensitized to vemurafenib; also recorded: affected

## FGF1: secreted factor, FGFR ligand
LOX-IMVI cells
  rescue in the secreted factor screen: rescued

## FGF2: secreted growth factor, FGFR ligand, promotes resistance
[3]; 10 B-raf mutant melanoma cell lines
  cell lines rescued by FGF2: 8 of the 10
[3]
  rescue of tumor cells from B-raf and MEK antagonists: most broadly and potently
[3]; subsequent analysis, n=30
  melanoma lines with the V600E mutation rescued by FGF2: 50-70%
624 MEL cells
  pathway activated in the presence of PLX4032: MAPK
[4]
  downstream signalling: sustained activation of downstream signalling
LOX-IMVI cells
  rescue in the secreted factor screen: rescued
B-raf-mutant melanomas
  MAPK signalling in the presence of PLX4032: activates MEK and ERK
[5]
  cell lines rescued by FGF2: 7 of the 10

## HGF: secreted growth factor which promotes resistance to PLX4032
[3]
  rescue of tumor cells from B-raf and MEK antagonists: most broadly and potently
624 MEL cells
  pathway activated in the presence of PLX4032: MAPK and AKT
LOX-IMVI cells
  rescue in the secreted factor screen: rescued

## SCF: secreted growth factor which promotes resistance to PLX4032
624 MEL cells
  pathway activated in the presence of PLX4032: AKT
